Measured values reported in patent US20260235593A1, “FRET BIOSENSOR RECOMBINANT PROTEINS” (The Regents of the University of California, priority 2023, published 2026).

Columns and labels:
Format in all cases: cell-based
[1] = test system: protein kinase A (PKA); assay: FRET-based AKAR imaging of PKA activity in HeLa cells upon Fsk/IBMX stimulation
Source text: In order to generate KARs that are both bright and photostable, we replaced one of the FPs in the prototypic FRET-based A kinase activity reporter AKAR4 with the self-labeling protein tag HaloTag, which can be flexibly labeled with synthetic fluorophores in different spectral regions. Here, we used a specific green-yellow HaloTag fluorophore (NGD, Table 1)^[12]. To identify the best FRET acceptor for HaloTag^(NGD), we selected a panel of 12 different RFPs with different excitation and emission properties. Given that the FRET efficiency depends not only on the distance between the donor and the acceptor fluorophore, but also on their relative orientation[^13], we tested two different domain orientations (HaloTag-RFP or RFP-HaloTag) and two different linker lengths (flexible linker with 14 amino acids or EV linker with 116 amino acids^[14], FIG. 1A). […] The 48 biosensors were transfected into HeLa cells, the HaloTag labeled with NGD, and the cells stimulated with 50 i.iM forskolin (Fsk) and 100 i.iM 3-isobutyl-1-methylxanthine (IBMX, FIG. 1B). […] We used NGD to label cpHaloTag and measured their response upon Fsk/IBMX stimulation. […] We overexpressed the reporters in HeLa cells and monitored changes in PKA activity after stimulation with 50 tM Fsk and 100 tM IBMX. […] We additionally quantified the on and off kinetics of the biosensor. […]

[2] = molecular target: T1, PKA (Homo sapiens, UniProt P17612); assay: Multiplexed biosensor imaging in HEK293T cells: PKA activity (red/far-red HaloTag-AKAR); conditions: HEK293T cells co-expressing yellow/far-red HaloTag-EKAR and red/far-red HaloTag-AKAR; 100 ng/mL hEGF; Fsk and 100 μM IBMX together; M H89
T1 construct: endogenous in cells; host or cells: HEK293T; only the biosensors are transfected
Description: (§1) Cell culture and transfection HeLa and HEK293T cells were cultured in Dulbecco's modified Eagle medium (DMEM; Gibco) containing glucose (1 g/L) and supplemented with 10% (v/v) fetal bovine serum (Sigma-Aldrich) and 1% (v/v) penicillin-streptomycin (Pen-Strep; Sigma-Aldrich). NIH3T3 cells were cultured in DMEM (Gibco) containing glucose (1 g/L) and supplemented with 10% (v/v) fetal calf serum and 1% (v/v) Pen-Strep (Sigma-Aldrich). All cells were maintained in a humidified incubator at 37° C. with a 5% CO2 atmosphere. Before transfection, cells were plated onto sterile quartered 35-mm glass-bottomed dishes and grown to 50 to 70% confluence. Cells were then transfected using Lipofectamine 2000 (Invitrogen, HeLa) or PolyJet (SignaGen Laboratories, HEK293T and NIH3T3) and grown an additional 48 hours (HeLa, HEK293T) before imaging. NIH3T3 cells were changed to serum-free DMEM immediately before transfection, medium was changed to complete medium after 6 h. NIH3T3 cells were then serum-starved for 24 hours before imaging. HaloTag labeling was performed 24 h before imaging using synthetic fluorophores (Fluorophore-CA 500 nM, 24 h, 37° C.) in the respective medium. Synthetic fluorophores were kindly provided by Luke Lavis (Janelia Research Campus, JF669-CA, JFX646-CA and JF635) or Kai Johnsson (Max Planck Institute for Medical Research (Germany) and EPFL (Switzerland), NGD-CA). […]

[3] = test system: ERK; assay: Multiplexed biosensor imaging in HEK293T cells: ERK activity (yellow/far-red HaloTag-EKAR); conditions: HEK293T cells co-expressing yellow/far-red HaloTag-EKAR and red/far-red HaloTag-AKAR; 100 ng/mL hEGF
Description: as §1

| PKA activity [2] | SMILES | FRET/yellow emission ratio after addition of H89 ([1]; HeLa cells expressing RFP-HaloTag^(NGD) AKARs, H89 added after 8 minutes of Fsk/IBMX stimulation) | normalized FRET/donor ratio after addition of H89 ([1]; HeLa cells expressing YFP-HaloTag^(JF669) AKARs, after 50 μM Fsk and 100 μM IBMX) | ERK activity [3] |
| --- | --- | --- | --- | --- |
| decrease in PKA activity | O=S(=O)(NCCNC/C=C/c1ccc(Br)cc1)c1cccc2cnccc12 [H89] | FRET/yellow emission ratio of most biosensors decreased | reversible |  |
| rapid increase in PKA activity | CC(C)Cn1c(=O)n(C)c(=O)c2[nH]cnc21 [IBMX, 3-isobutyl-1-methylxanthine] |  |  |  |
|  | O=C(Nc1ccc2[nH]nc(-c3ccncc3)c2c1)[C@@H]1CCN(CC(=O)N2CCN(c3ccc(-c4ncccn4)cc3)CC2)C1 [SCH772984] |  |  | only decreased ERK activity |
